Source: ChEMBL document CHEMBL3576831, “Discovery of a Selective TRPM8 Antagonist with Clinical Efficacy in Cold-Related Pain” (ACS Med Chem Lett, 2015)
The source made the active and inactive calls. The calls are words filed in the database; no cut-off is given here.

Assays:
[1] = Volume of distribution at steady state in beagle dog at 0.2 mg/kg, iv; format: ADME, organism-based, Canis lupus familiaris; details: in vivo, read-out: Vdss
Hepatocyte = assay: Intrinsic clearance in human hepatocytes assessed per million cells; format: ADME, cell-based
Cavia porcellus = species on record: Cavia porcellus; assay: Analgesic effect in guinea pig model of cold-induced bladder contractility assessed as maximum unbound concentration to causing therapeutic efficacy; format: functional
Canis familiaris = assay: Unbound clearance in beagle dog at 0.2 mg/kg, iv; format: ADME, organism-based, Canis lupus familiaris; details: in vivo
Homo sapiens [2] = assay: Toxicity in human assessed as effect on core body temperature up to 900 mg administered as single dose during cold pressor test; format: organism-based; details: in vivo
[3] = Volume of distribution at steady state in rat; format: ADME, organism-based; details: in vivo, read-out: Vdss
[4] = Oral absorption in rat at 2 mg/kg; format: ADME, organism-based; details: in vivo
[5] = molecular target: T1, Voltage-gated inwardly rectifying potassium channel KCNH2 (Homo sapiens, UniProt Q12809); assay: Inhibition of dofetilide binding to human ERG
[6] = Half life in rat; format: ADME, organism-based; details: in vivo
[7] = molecular target: T2, Transient receptor potential cation channel subfamily M member 8 (Homo sapiens, UniProt Q7Z2W7); assay: Antagonist activity against human recombinant TRPM8 expressed in CHO T-rex cells assessed as inhibition of WS12-induced calcium response pre-incubated for 20 mins before WS12 addition; format: cell-based
CYP2C9 = CYP2C9 (Homo sapiens, UniProt P11712); assay: Inhibition of CYP2C9 (unknown origin) at 3 uM; format: ADME
Rattus norvegicus [8] = species on record: Rattus norvegicus; assay: Unbound clearance in rat; format: ADME, organism-based; details: in vivo
Homo sapiens [9] = assay: Toxicity in human assessed as induction of nontolerated hot sensation localized to mouth, face, upper body, arms and hands at 900 mg administered as single dose during cold pressor test; format: organism-based; details: in vivo
[10] = Permeability in RRCK cells; format: ADME, cell-based, Canis lupus familiaris, MDCKII-LE; details: dog, MDCK; read-out: permeability
[11] = Clearance in rat; format: ADME, organism-based; details: in vivo
CYP3A4 = CYP3A4 (Homo sapiens, UniProt P08684); assay: Inhibition of CYP3A4 (unknown origin) at 3 uM; format: ADME
CYP2D6 = CYP2D6 (Homo sapiens, UniProt P10635); assay: Inhibition of CYP2D6 (unknown origin) at 3 uM; format: ADME
[12] = molecular target: T1, Voltage-gated inwardly rectifying potassium channel KCNH2; assay: Inhibition of human ERG
[13] = Oral bioavailability in rat at 10 mg/kg; format: ADME, organism-based; details: in vivo
[14] = Oral bioavailability in beagle dog at 20 mg/kg; format: ADME, organism-based, Canis lupus familiaris; details: in vivo
CYP1A2 = molecular target: T3, CYP1A2 (Homo sapiens, UniProt P05177); assay: Inhibition of CYP1A2 (unknown origin) at 3 uM; format: ADME
T3 sequence (P05177 whole entry): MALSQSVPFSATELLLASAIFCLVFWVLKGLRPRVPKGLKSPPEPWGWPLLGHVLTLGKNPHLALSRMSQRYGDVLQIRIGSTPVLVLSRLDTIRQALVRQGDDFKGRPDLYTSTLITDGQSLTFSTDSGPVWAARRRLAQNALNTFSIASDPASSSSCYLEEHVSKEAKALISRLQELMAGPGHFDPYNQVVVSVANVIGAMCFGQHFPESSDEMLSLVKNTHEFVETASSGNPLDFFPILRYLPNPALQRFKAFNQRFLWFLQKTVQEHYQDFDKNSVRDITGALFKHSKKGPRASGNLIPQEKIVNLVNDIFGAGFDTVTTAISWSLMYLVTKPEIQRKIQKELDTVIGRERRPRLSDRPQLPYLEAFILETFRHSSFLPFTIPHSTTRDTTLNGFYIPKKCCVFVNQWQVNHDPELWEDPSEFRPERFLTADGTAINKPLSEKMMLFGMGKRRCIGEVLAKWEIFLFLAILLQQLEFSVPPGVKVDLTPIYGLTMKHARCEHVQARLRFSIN

Homo sapiens [15] = species on record: Homo sapiens; assay: Selectivity for human TRPM8 over TRPA1 (unknown origin)
[16] = Fraction unbound in human plasma; format: ADME, cell-free
[17] = Fraction unbound in rat plasma; format: ADME, cell-free
[18] = molecular target: T2, Transient receptor potential cation channel subfamily M member 8; assay: Antagonist activity against human TRPM8 by single cell patch clamp electrophysiology
[19] = Oral absorption in rat at 10 mg/kg; format: ADME, organism-based; details: in vivo
[20] = Fraction unbound in guinea pig plasma; format: ADME, cell-free, Cavia porcellus
Homo sapiens [21] = species on record: Homo sapiens; assay: Selectivity for human TRPM8 over TRPV1 (unknown origin)
[22] = Half life in beagle dog at 0.2 mg/kg, iv; format: ADME, organism-based, Canis lupus familiaris; details: in vivo
[23] = Fraction unbound in dog plasma; format: ADME, cell-free, Canis lupus familiaris
Homo sapiens [24] = assay: Analgesic effect in human at 900 mg administered as single dose by cold pressor test; format: functional, organism-based
Rattus norvegicus [25] = species on record: Rattus norvegicus; assay: Drug metabolism in bile-duct cannulated rat assessed as formation of acyl glucuronide formation; format: ADME, organism-based; details: in vivo
Liver microsome = assay: Intrinsic clearance in rat liver microsomes; format: ADME
[26] = Oral bioavailability in rat at 2 mg/kg; format: ADME, organism-based; details: in vivo
[27] = Oral absorption in beagle dog at 20 mg/kg; format: ADME, organism-based, Canis lupus familiaris; details: in vivo
[28] = Intrinsic clearance in human liver microsomes; format: ADME; details: read-out: CLH
[29] = Clearance in beagle dog at 0.2 mg/kg, iv; format: ADME, organism-based, Canis lupus familiaris; details: in vivo
[30] = Efflux ratio in MDCK cells; format: ADME, cell-based, Canis lupus familiaris; details: dog
CYP2C8 = molecular target: T4, CYP2C8 (Homo sapiens, UniProt P10632); assay: Inhibition of CYP2C8 (unknown origin) at 3 uM; format: ADME
T4 sequence (P10632 whole entry): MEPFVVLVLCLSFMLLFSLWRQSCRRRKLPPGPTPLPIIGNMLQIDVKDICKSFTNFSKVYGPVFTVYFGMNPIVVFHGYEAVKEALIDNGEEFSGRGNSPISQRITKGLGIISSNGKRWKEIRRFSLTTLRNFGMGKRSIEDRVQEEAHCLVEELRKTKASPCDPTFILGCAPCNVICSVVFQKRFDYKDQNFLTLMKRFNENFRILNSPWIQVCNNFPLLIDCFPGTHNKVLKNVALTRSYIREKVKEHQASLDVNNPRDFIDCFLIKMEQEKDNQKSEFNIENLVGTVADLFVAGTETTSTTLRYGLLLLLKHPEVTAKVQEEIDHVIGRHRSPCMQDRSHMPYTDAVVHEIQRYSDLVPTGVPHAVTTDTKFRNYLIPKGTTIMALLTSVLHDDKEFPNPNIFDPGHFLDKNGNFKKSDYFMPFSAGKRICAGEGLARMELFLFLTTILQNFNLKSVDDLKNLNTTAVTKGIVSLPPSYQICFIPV

[31] = Lipophilicity, log D of the compound; format: physicochemical; details: octanol/water

T1 sequence (Q12809 whole entry): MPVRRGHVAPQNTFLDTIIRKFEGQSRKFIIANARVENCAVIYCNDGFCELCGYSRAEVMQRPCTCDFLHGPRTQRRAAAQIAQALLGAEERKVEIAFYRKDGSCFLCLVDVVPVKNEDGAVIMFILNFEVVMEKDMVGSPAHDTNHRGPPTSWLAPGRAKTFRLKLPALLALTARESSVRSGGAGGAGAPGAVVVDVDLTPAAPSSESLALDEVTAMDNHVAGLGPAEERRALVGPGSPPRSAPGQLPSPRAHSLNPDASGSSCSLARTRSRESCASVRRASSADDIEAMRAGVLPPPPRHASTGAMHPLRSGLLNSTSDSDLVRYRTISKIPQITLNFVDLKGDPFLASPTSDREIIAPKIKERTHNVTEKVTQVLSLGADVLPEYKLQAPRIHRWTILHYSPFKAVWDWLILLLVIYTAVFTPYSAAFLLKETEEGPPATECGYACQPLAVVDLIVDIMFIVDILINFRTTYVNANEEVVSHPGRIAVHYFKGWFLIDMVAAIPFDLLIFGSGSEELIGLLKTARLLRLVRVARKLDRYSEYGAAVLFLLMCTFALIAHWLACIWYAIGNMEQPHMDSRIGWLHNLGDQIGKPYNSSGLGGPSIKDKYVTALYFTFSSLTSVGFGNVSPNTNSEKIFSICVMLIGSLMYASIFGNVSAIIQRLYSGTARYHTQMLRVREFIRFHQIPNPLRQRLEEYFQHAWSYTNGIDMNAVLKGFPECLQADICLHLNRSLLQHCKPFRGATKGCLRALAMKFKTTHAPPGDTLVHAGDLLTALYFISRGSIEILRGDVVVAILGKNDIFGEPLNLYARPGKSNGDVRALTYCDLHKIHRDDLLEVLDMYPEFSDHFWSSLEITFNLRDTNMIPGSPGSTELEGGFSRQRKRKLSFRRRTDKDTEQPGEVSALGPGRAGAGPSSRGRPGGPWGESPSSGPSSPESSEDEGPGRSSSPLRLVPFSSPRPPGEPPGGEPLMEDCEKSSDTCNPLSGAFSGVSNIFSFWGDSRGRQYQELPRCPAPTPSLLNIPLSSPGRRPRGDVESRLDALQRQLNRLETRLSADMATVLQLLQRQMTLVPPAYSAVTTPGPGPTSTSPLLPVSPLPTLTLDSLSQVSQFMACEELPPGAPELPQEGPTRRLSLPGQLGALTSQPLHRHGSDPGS
T2 sequence (Q7Z2W7 whole entry): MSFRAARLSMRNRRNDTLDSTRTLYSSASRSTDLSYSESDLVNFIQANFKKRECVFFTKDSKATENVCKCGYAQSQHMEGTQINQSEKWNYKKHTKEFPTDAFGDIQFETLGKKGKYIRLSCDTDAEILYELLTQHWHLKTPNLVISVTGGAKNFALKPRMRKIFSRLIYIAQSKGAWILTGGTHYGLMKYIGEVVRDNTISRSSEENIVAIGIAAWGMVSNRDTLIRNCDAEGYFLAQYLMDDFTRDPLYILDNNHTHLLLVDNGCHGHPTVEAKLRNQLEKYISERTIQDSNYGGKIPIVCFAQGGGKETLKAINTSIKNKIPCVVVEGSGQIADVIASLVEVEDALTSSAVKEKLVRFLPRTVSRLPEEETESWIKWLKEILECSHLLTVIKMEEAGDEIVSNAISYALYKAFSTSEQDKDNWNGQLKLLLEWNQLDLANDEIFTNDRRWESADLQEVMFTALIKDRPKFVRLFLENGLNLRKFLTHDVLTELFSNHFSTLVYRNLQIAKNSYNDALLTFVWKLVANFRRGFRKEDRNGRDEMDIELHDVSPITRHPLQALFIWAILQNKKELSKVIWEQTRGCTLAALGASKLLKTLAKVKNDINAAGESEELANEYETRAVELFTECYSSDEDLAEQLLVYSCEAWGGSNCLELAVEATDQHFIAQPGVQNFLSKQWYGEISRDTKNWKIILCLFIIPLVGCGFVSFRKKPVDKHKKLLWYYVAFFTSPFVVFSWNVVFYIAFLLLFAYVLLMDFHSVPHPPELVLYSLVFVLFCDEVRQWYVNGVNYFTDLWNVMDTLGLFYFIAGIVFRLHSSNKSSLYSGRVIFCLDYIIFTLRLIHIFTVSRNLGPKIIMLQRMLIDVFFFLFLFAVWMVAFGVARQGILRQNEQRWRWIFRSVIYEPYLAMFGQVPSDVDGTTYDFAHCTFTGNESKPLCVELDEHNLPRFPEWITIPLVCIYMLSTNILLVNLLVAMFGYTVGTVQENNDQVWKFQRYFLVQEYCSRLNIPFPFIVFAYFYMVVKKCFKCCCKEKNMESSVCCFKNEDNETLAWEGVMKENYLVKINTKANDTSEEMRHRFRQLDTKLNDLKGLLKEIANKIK
Sequence of CYP3A4 (P08684 whole entry): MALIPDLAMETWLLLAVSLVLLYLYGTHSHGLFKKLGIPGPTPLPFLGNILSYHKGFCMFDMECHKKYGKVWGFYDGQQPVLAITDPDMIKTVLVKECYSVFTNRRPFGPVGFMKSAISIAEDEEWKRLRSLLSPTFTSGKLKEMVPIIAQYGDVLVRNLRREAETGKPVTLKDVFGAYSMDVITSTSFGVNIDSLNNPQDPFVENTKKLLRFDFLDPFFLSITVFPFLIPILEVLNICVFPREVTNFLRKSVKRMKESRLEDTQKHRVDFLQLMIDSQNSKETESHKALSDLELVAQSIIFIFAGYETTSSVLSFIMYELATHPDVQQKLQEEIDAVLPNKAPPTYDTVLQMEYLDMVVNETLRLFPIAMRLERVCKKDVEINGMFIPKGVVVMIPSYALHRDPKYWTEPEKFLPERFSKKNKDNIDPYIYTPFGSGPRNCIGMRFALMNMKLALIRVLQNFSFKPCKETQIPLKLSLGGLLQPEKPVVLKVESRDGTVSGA
Sequence of CYP2C9 (P11712 whole entry): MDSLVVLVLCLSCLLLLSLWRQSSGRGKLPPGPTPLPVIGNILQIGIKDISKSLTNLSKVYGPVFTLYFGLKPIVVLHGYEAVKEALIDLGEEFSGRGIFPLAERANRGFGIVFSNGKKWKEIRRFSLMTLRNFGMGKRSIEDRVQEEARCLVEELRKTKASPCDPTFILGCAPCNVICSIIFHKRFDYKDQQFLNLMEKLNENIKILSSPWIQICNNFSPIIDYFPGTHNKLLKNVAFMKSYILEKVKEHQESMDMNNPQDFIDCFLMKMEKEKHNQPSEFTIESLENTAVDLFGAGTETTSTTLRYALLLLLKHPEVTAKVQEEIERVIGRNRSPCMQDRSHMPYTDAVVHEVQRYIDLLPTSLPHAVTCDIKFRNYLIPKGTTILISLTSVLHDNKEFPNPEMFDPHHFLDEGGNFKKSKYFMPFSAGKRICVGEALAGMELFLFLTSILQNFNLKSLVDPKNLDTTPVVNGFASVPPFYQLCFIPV
Sequence of CYP2D6 (P10635 whole entry): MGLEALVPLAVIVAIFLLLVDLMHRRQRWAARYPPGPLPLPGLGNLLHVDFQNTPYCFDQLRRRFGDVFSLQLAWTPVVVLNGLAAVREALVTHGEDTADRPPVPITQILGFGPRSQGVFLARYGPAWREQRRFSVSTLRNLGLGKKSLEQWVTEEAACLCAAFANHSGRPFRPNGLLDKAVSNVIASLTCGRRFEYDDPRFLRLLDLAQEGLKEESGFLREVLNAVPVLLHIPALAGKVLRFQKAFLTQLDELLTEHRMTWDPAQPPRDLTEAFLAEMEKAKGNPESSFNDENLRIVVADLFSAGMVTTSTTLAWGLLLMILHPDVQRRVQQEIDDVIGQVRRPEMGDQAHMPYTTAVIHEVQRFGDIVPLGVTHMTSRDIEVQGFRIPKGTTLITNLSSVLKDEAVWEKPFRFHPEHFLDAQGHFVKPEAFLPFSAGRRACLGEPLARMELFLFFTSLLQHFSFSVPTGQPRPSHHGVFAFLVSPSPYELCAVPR

Question: What does the source list for `C[C@H](c1ccc(F)cc1)N(Cc1cccc(C(=O)O)c1)C(=O)c1cnc2ccccc2c1` [PF-05105679]?
Answer: Vd [1]: 7.4 L/kg; hepatocyte intrinsic clearance (Hepatocyte): < 15 µL/min/million cells; fCmax (Cavia porcellus): 254 nM; CL free (Canis familiaris): 462 mL/min/kg; Activity (Homo sapiens [2]): Non-toxic; Vd [3]: 6.2 L/kg; Fa [4]: 46%; Ki [5]: > 15.9 µM; half-life [6]: 3.6 h; IC50 [7]: 0.181 µM; inhibition at 3 µM (CYP2C9): 0%; CL free (Rattus norvegicus [8]): 618 mL/min/kg; Activity (Homo sapiens [9]): Toxic; Papp [10]: 6.8 ×10⁻⁶ cm/s; clearance [11]: 19.8 mL/min/kg; inhibition at 3 µM (CYP3A4): 0%; inhibition at 3 µM (CYP2D6): 0%; IC50 [12]: > 30 µM; bioavailability [13]: 62%; bioavailability [14]: 92%; inhibition at 3 µM (CYP1A2): 0%; Selectivity ratio (Homo sapiens [15]): > 100; fraction unbound [16]: 0.012; fraction unbound [17]: 0.033; IC50 [18]: 0.103 µM; Fa [19]: 100%; fraction unbound [20]: 0.07; Selectivity ratio (Homo sapiens [21]): > 100; half-life [22]: 3.9 h; fraction unbound [23]: 0.067; Activity (Homo sapiens [24]): Active; Drug metabolism (Rattus norvegicus [25]): metabolite_detected; microsomal CLint (Liver microsome): 17 µL/min/mg; bioavailability [26]: 29%; Fa [27]: 100%; microsomal CLint [28]: < 8 µL/min/mg; clearance [29]: 31 mL/min/kg; efflux ratio [30]: 4.8; inhibition at 3 µM (CYP2C8): 0%; logD [31]: 1
